Target: T1, urease (from jack beans) (Canavalia ensiformis, UniProt P07374)
T1 construct: solid urease (from jack beans); lyophilized 5 U/mg for urea assay in serum; purchased Merck article No. 4194753; host or cells: jack beans (natural source)
Type: biochemical
Conditions: comparison of inventive with comparative examples, table 1
Protocol: To evaluate the odor-inhibiting effect of the compositions of the present invention, the inhibition of the activity of urease in the formation of ammonia from urea is determined. The determination is carried out at room temperature. 2 g of the substance to be tested (superabsorbent, composition according to the present invention) are weighed into a 100 ml Erlenmeyer flask. 30 mg of solid urease (from jack beans; lyophilized 5 U/mg for urea assay in serum; Merck, article No. 4194753) is weighed into a 100 ml glass beaker. 50 ml of 0.9% sodium chloride solution in urea (8.56 g/L) are added to the urease. The entire contents of the glass beaker are poured swiftly onto the sample in the Erlenmeyer flask, a diffusion tubelet (Dräger Röhrchen, ammonia 20/a-D, 20-1500 ppm*h, order No. 8101301) is as intended broken open, inserted into a rubber stopper which fits the Erlenmeyer flask and the Erlenmeyer flask is sealed with the stopper such that the open end of the diffusion tubelet points inward. […] The measurement is in each case carried out as a duplicate determination, and the result reported is the average between the two readings which has been rounded to the nearest whole number.

T1 sequence (P07374 whole entry, looked up): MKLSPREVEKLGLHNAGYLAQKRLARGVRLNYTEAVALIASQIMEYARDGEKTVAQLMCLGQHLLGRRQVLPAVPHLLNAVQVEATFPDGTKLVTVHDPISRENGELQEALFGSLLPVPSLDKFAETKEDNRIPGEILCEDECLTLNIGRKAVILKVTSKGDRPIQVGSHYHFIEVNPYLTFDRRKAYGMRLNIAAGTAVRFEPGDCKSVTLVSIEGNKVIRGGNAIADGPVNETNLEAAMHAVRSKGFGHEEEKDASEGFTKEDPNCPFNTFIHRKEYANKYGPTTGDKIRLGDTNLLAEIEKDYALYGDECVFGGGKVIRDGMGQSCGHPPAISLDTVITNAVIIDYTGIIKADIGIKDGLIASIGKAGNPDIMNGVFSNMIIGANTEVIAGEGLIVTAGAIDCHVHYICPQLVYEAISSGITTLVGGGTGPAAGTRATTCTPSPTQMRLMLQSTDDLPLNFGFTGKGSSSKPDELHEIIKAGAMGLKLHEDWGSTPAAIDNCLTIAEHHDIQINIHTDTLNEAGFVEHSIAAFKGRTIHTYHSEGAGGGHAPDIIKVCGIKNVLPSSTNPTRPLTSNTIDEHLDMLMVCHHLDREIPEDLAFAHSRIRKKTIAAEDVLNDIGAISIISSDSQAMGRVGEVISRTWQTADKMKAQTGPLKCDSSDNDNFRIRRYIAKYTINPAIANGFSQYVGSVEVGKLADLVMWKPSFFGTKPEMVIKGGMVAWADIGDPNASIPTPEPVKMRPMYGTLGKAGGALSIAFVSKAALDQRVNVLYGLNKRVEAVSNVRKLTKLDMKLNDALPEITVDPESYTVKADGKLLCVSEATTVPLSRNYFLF

`O=CC(=O)O` [glyoxylic acid] was tested, and the “odor-inhibiting effect (in words)” value was “demonstrates an odor-inhibiting effect”.

From patent publication US20090012488A1, “Super-Absorber Having Improved Smell-Inhibition” (BASF SE, priority 2006, published 2009)
